# Laboratory results as given in patent publication US20040127403A1, “Methods for treating and preventing Gram-positive bacteremias” (priority 2002, published 2004).
# Key:
# Test in all cases: MIC, NCCLS broth microdilution
# Assay type in all cases: cell-based
# E. faecalis ATCC29212 = conditions: Enterococcus faecalis, ATCC29212, E. faecalis ATCC29212
# Description: (§1) The efficacy of ramoplanin was tested against recently isolated VRE that are resistant to linezolid and quinupristin/dalfopristin. The culture media containing ramoplanin was supplemented with 0.02% bovine serum albumin (BSA) to prevent ramoplanin binding to the plastic. MIC values were determined in both cation-adjusted Mueller-Hinton broth (CAMHB) and trypticase soy broth (TSB) by the National Committee for Clinical Laboratory Standards (NCCLS) broth microdilution method. Macromolecular biosynthesis experiments were done by following the incorporation of carbon-14-labeled N-acetylglucosamine, acetic acid, amino acids, uridine, and thymidine into peptidoglycan, fatty acid, protein, RNA and DNA, respectively.
# E. faecium A-5960 Line-R = conditions: Enterococcus faecium, A5960LINER
# Description: as §1
# E. faecium A6350 Line-R = conditions: Enterococcus faecium, A6350LINER
# Description: as §1
# E. faecalis ATCC51299 = conditions: Enterococcus faecalis, ATCC51299, E. faecalis ATCC51299
# Description: as §1
# E. faecium A6345 Line-R = conditions: for MIC: Enterococcus faecium, A6345LINER, E. faecium A6345 Line-R
# Description: as §1
# S. aureus ATCC43300 MRSA = tested on: S. aureus ATCC43300 MRSA
# Description: as §1
# [1] = tested on: S. aureus ATCC700699 MRSA/VISA
# Description: as §1
# E. faecium A4192 Syn-R = conditions: Enterococcus faecium, A4192SYNR
# Description: as §1
# E. faecium 1836 = conditions: Enterococcus faecium, 1836, E. faecium 1836
# Description: as §1
# E. gallinarum UA604 = conditions: Enterococcus gallinarum, GALLINARUM
# Description: as §1
# S. aureus ATCC27660 MSSA = conditions: Staphylococcus aureus
# Description: as §1
# S. aureus ATCC12600 MRSA = conditions: Staphylococcus aureus
# Description: as §1
# E. faecium ATCC700221 = conditions: Enterococcus faecium, ATCC700221, E. faecium ATCC700221
# Description: as §1
# E. faecium UA210 = conditions: Enterococcus faecium, UA210, E. faecium UA210
# Description: as §1
# S. epidermidis ATCC12228 = conditions: Staphylococcus epidermidis, ATCC12228, S. epidermidis ATCC12228
# Description: as §1
# S. epidermidis ATCC35983 = conditions: Staphylococcus epidermidis, ATCC35983, S. epidermidis ATCC35983
# Description: as §1
# S. aureus ATCC19636 MSSA = conditions: Staphylococcus aureus
# Description: as §1
# E. faecium A6343 Line-R = conditions: Enterococcus faecium, A6343LINER
# Description: as §1
# E. faecium A2735 Syn-R = conditions: Enterococcus faecium, A2735SYNR
# Description: as §1
# S. aureus ATCC27659 MSSA = conditions: Staphylococcus aureus
# Description: as §1
# E. faecium A5959 Line-R = conditions: Enterococcus faecium, A5959LINER
# Description: as §1
# E. faecium A6349 Line-R = conditions: Enterococcus faecium, A6349LINER
# Description: as §1
# S. epidermidis ATCC35984 = conditions: Staphylococcus epidermidis, ATCC35984, S. epidermidis ATCC35984
compound,measurement,setting,value
CN[C@H](CC(C)C)C(=O)N[C@H]1C(=O)N[C@@H](CC(N)=O)C(=O)N[C@H]2C(=O)N[C@H]3C(=O)N[C@H](C(=O)N[C@H](C(=O)O)c4cc(O)cc(O)c4-c4cc3ccc4O)[C@H](O)c3ccc(c(Cl)c3)Oc3cc2cc(c3O[C@@H]2O[C@H](CO)[C@@H](O)[C@H](O)[C@H]2O[C@H]2C[C@](C)(N)[C@H](O)[C@H](C)O2)Oc2ccc(cc2Cl)[C@H]1O [Vancomycin],MIC,E. faecalis ATCC29212; CAMHB,4 µg/mL
same,MIC,"E. faecalis ATCC29212; Table 6, 1st",2 µg/mL
same,MIC,"E. faecalis ATCC29212; Table 6, 2nd",2 µg/mL
same,MIC,E. faecium A-5960 Line-R; CAMHB,> 16 µg/mL
same,MIC,E. faecium A-5960 Line-R; TSB,> 16 µg/mL
same,MIC,"E. faecium A-5960 Line-R; Table 6, 1st",> 16 µg/mL
same,MIC,"E. faecium A-5960 Line-R; Table 6, 2nd",> 64 µg/mL
same,MIC,E. faecium A6350 Line-R; CAMHB,2 µg/mL
same,MIC,E. faecium A6350 Line-R; TSB,2 µg/mL
same,MIC,"E. faecium A6350 Line-R; Table 6, 1st",1 µg/mL
same,MIC,"E. faecium A6350 Line-R; Table 6, 2nd",1 µg/mL
same,MIC,E. faecalis ATCC51299; CAMHB,> 16 µg/mL
same,MIC,E. faecalis ATCC51299; TSB,> 16 µg/mL
same,MIC,"E. faecalis ATCC51299; Table 6, 1st",> 16 µg/mL
same,MIC,"E. faecalis ATCC51299; Table 6, 2nd",32 µg/mL
same,reference MIC for strains used for killing curve,"E. faecium A6345 Line-R; E. faecium A6345 Line-R. as printed, second row of Table 3",>64 µg/mL
same,reference MIC for strains used for killing curve,"E. faecium A6345 Line-R; E. faecium A6345 Line-R., first row of Table 3",>64 µg/mL
same,MIC,E. faecium A6345 Line-R; CAMHB,> 16 µg/mL
same,MIC,E. faecium A6345 Line-R; TSB,> 16 µg/mL
same,MIC,"E. faecium A6345 Line-R; Table 6, 1st",> 16 µg/mL
same,MIC,"E. faecium A6345 Line-R; Table 6, 2nd",> 64 µg/mL
same,MIC,"S. aureus ATCC43300 MRSA; S. aureus ATCC43300 MRSA/VISA, Table 6, 2nd",1 µg/mL
same,MIC,"S. aureus ATCC43300 MRSA; S. aureus ATCC43300 MRSA, TSB","2, 2 μg/ml"
same,MIC,S. aureus ATCC43300 MRSA; Staphylococcus aureus,2 µg/mL
same,MIC,"S. aureus ATCC43300 MRSA; Staphylococcus aureus, ATCC 43300 / MRSA / VISA",1 µg/mL
same,MIC,"[1]; S. aureus ATCC700699 MRSA/VISA, TSB","2, 2 μg/ml"
same,MIC,"[1]; S. aureus ATCC700699 MRSA/VISA, Table 6, 1st",2 µg/mL
same,MIC,"[1]; S. aureus ATCC700699 MRSA/VISA, Table 6, 2nd",2 µg/mL
same,MIC,[1]; Staphylococcus aureus,2 µg/mL
same,MIC,E. faecium A4192 Syn-R; CAMHB,> 16 µg/mL
same,MIC,E. faecium A4192 Syn-R; TSB,> 16 µg/mL
same,MIC,"E. faecium A4192 Syn-R; Table 6, 1st",> 16 µg/mL
same,MIC,"E. faecium A4192 Syn-R; Table 6, 2nd",> 64 µg/mL
same,MIC,E. faecium 1836; CAMHB,> 16 µg/mL
same,MIC,E. faecium 1836; TSB,> 16 µg/mL
same,MIC,"E. faecium 1836; Table 6, 1st",> 16 µg/mL
same,MIC,"E. faecium 1836; Table 6, 2nd",> 64 µg/mL
same,MIC,E. gallinarum UA604; CAMHB,1 µg/mL
same,MIC,E. gallinarum UA604; TSB,2 µg/mL
same,MIC,"E. gallinarum UA604; Table 6, 1st",0.5 µg/mL
same,MIC,"E. gallinarum UA604; Table 6, 2nd",0.5 µg/mL
same,MIC,S. aureus ATCC27660 MSSA; CAMHB,2 µg/mL
same,MIC,S. aureus ATCC27660 MSSA; TSB,2 µg/mL
same,MIC,"S. aureus ATCC27660 MSSA; Table 6, 1st",1 µg/mL
same,MIC,"S. aureus ATCC27660 MSSA; Table 6, 2nd",1 µg/mL
same,MIC,S. aureus ATCC12600 MRSA; CAMHB,2 µg/mL
same,MIC,S. aureus ATCC12600 MRSA; TSB,2 µg/mL
same,MIC,"S. aureus ATCC12600 MRSA; Table 6, 1st",1 µg/mL
same,MIC,"S. aureus ATCC12600 MRSA; Table 6, 2nd",1 µg/mL
same,MIC,E. faecium ATCC700221; CAMHB,> 16 µg/mL
same,MIC,E. faecium ATCC700221; TSB,> 16 µg/mL
same,MIC,"E. faecium ATCC700221; Table 6, 1st",> 16 µg/mL
same,MIC,"E. faecium ATCC700221; Table 6, 2nd",> 64 µg/mL
same,MIC,E. faecium UA210; CAMHB,> 16 µg/mL
same,MIC,E. faecium UA210; TSB,> 16 µg/mL
same,MIC,"E. faecium UA210; Table 6, 1st",> 16 µg/mL
same,MIC,"E. faecium UA210; Table 6, 2nd",> 64 µg/mL
same,MIC,S. epidermidis ATCC12228; CAMHB,4 µg/mL
same,MIC,S. epidermidis ATCC12228; TSB,4 µg/mL
same,MIC,"S. epidermidis ATCC12228; Table 6, 1st",2 µg/mL
same,MIC,"S. epidermidis ATCC12228; Table 6, 2nd",2 µg/mL
same,MIC,S. epidermidis ATCC35983; CAMHB,4 µg/mL
same,MIC,S. epidermidis ATCC35983; TSB,4 µg/mL
same,MIC,"S. epidermidis ATCC35983; Table 6, 1st",2 µg/mL
same,MIC,"S. epidermidis ATCC35983; Table 6, 2nd",2 µg/mL
same,MIC,S. aureus ATCC19636 MSSA; CAMHB,2 µg/mL
same,MIC,S. aureus ATCC19636 MSSA; TSB,> 16 µg/mL
same,MIC,"S. aureus ATCC19636 MSSA; Table 6, 1st",1 µg/mL
same,MIC,"S. aureus ATCC19636 MSSA; Table 6, 2nd",1 µg/mL
same,MIC,E. faecium A6343 Line-R; CAMHB,2 µg/mL
same,MIC,E. faecium A6343 Line-R; TSB,2 µg/mL
same,MIC,"E. faecium A6343 Line-R; Table 6, 1st",1 µg/mL
same,MIC,"E. faecium A6343 Line-R; Table 6, 2nd",1 µg/mL
same,MIC,E. faecium A2735 Syn-R; CAMHB,> 16 µg/mL
same,MIC,E. faecium A2735 Syn-R; TSB,> 16 µg/mL
same,MIC,"E. faecium A2735 Syn-R; Table 6, 1st",> 16 µg/mL
same,MIC,"E. faecium A2735 Syn-R; Table 6, 2nd",> 64 µg/mL
same,MIC,S. aureus ATCC27659 MSSA; CAMHB,1 µg/mL
same,MIC,S. aureus ATCC27659 MSSA; TSB,> 16 µg/mL
same,MIC,"S. aureus ATCC27659 MSSA; Table 6, 1st",1 µg/mL
same,MIC,"S. aureus ATCC27659 MSSA; Table 6, 2nd",1 µg/mL
same,MIC,E. faecium A5959 Line-R; CAMHB,> 16 µg/mL
same,MIC,E. faecium A5959 Line-R; TSB,> 16 µg/mL
same,MIC,"E. faecium A5959 Line-R; Table 6, 1st",> 16 µg/mL
same,MIC,"E. faecium A5959 Line-R; Table 6, 2nd",> 64 µg/mL
same,MIC,"E. faecium A6349 Line-R; Table 6, 1st",> 16 µg/mL
same,MIC,"E. faecium A6349 Line-R; Table 6, 2nd",> 64 µg/mL
same,MIC,S. epidermidis ATCC35984; CAMHB,4 µg/mL
same,MIC,S. epidermidis ATCC35984; TSB,4 µg/mL
same,MIC,"S. epidermidis ATCC35984; Table 6, 1st",2 µg/mL
same,MIC,"S. epidermidis ATCC35984; Table 6, 2nd",2 µg/mL
